Reference: patent US6248765A, “Imidazole derivatives as histamine receptor H3 (ANT) agonists” (priority 1995, dated 2001)
Where a name gives a salt, the structure may show the parent alone. Read-outs that look alike come from different tables or passages of the source. Each block holds one molecule with its values, some of them ahead of it.

Legend:
[1] = test system: cerebral tele-methylhistamine; experiment: antagonist effect in vivo: change in the level of cerebral tele-methylhistamine in mice; settings: Mus musculus, po, 1.5 h, read-out: Change in the level of cerebral tele-methylhistamine (relative to controls)
Experimental: Results are collated in Tables II and III below:
These various compounds were administered at a dose of 10 mg/kg p.o., and the mice sacrificed 90 min later.

histamine H3 receptor [2] = target: T1, histamine H3 receptor (Rattus norvegicus, UniProt Q9QYN8); experiment: H3 antagonist power: reversal of (R)-alpha-methylhistamine-induced inhibition of [3H]histamine release from synaptosomes of rat cerebral cortex; format: biochemical; settings: read-out: Ki (apparent dissociation constant as histamine antagonist at the H3 receptors)
T1 construct: synthesized from [^3 H]histidine by synaptosomes of rat cerebral cortex; from tissue; host or cells: rat cerebral cortex synaptosomes

[3] = test system: cerebral tele-methylhistamine; experiment: agonist effect in vivo: change in the level of cerebral tele-methylhistamine in mice; settings: for Change in the level of cerebral tele-methylhistamine (relative to controls): H3 partial agonists, mice, 10 mg/kg p.o., 90 min
Experimental: The effect of a partial agonist in vivo is characterized by the fact that the maximum reduction in the level of tele-methylhistamine which it induces at high dose is smaller than the reduction induced by a reference H3 agonist.
These various compounds were administered at a dose of 10 mg/kg p.o. and the mice sacrificed 90 min later.

histamine H3 receptor [4] = target: T1, histamine H3 receptor; experiment: H3 agonist effect: inhibition of [3H]histamine release from synaptosomes of rat cerebral cortex; format: biochemical; settings: for Emax: maximum inhibition relative to that of exogenous histamine or (R)-alpha-methylhistamine, read-out: Intrinsic activity; for EC50: rat cerebral cortex synaptosomes, inhibition of [3H]histamine release, read-out: EC50 (50% effective concentration of partial agonists)
Experimental: The partial agonist effect of the compounds is evaluated by comparison of the maximum inhibition which they induce relative to the maximum inhibition induced by exogenous histamine or [R]-α-methylhistamine; the ratio of these two values giving the intrinsic activity of the compound with respect to the system.

plasma extravasation = plasma extravasation induced in rats under the influence of capsaicin (tissue level of Evans blue); format: in vivo; settings: capsaicin 90 μg/kg i.v.
Source text: In contrast, we have discovered that measurement of the activity of the cerebral histaminic neurons in vivo, reflected by the level of tele-methylhistamine, a characteristic metabolite of released histamine, constitutes a more sensitive test of agonist activity. In effect, compounds displaying an intrinsic activity ≤25% in vitro cause, in vivo, a maximum or virtually maximum fall in the level of the tele-methylhistamine. Another sensitive test of H3 agonist activity, in this instance in relation to peripheral organs, consists in measuring the plasma extravasation induced in rats under the influence of capsaicin (90 μg/kg i.v.) and determined by measuring the tissue level of Evans blue, a dye administered at the same time as capsaicin, namely 5 min before infusion and sacrifice (Saria et al., Naunyn-Schmiedeberg's Arch. Pharmacol. 1983, 324: 212).

[5] = H3 antagonists, mice, 10 mg/kg p.o., 90 min

T1 sequence (Q9QYN8 whole entry): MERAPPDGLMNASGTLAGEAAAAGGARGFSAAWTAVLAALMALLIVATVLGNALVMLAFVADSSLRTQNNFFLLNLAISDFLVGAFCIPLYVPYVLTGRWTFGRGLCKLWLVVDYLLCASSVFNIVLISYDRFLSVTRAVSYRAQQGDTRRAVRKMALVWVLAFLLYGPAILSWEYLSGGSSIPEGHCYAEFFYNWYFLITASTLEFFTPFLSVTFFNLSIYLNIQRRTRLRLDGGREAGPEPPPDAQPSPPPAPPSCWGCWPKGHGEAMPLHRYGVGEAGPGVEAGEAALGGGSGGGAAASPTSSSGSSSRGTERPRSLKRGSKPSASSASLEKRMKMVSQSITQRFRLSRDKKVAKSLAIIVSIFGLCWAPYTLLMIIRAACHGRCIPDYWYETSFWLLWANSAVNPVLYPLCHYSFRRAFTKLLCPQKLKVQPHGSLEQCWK

Compound: CCCCCNC(=O)OCCCc1c[nH]cn1 [Example 30, 3-(1H-Imidazol-4-yl)propyl-N-pentyl carbamate]
change in vivo at 10 mg/kg [1, 5]: 67%

Compound: Cc1cc(C)cc(NC(=O)OCCCc2c[nH]cn2)c1 [Example 115, N-(3,5-Dimethylphenyl)-3-(1H-imidazol-4-yl)propyl carbamate]
Ki (histamine H3 receptor [2]): 44 nM

Ki (histamine H3 receptor [2]): 0.5 nM
Compound: c1nc(CCCOCCC2CC3CCC2C3)c[nH]1 (centres unmarked) [Example 61, 2-(Bicyclo[2.2.1]hept-2-yl)ethyl 3-(1H-imidazol-4-yl)propyl ether]

Compound: CCCN(CCC)C(=O)OCCCc1c[nH]cn1 [Example 39, 3-(1H-Imidazol-4-yl)propyl-N,N-dipropyl carbamate]
change in vivo at 10 mg/kg [1, 5]: 84%

Compound: Cc1ccc(OCCc2c[nH]cn2)cc1 [Example 160, 4-[2-(4-Methylphenoxy)ethyl]-1H-imidazole oxalate]
change in vivo at 10 mg/kg [1, 5]: 95%

Compound: CON=C(C)c1ccc(OCCCc2c[nH]cn2)cc1 [Example 93, (4-(3-(1H-Imidazol-4-yl)propyloxy)phenyl)ethanone O-methyloxime]
Ki (histamine H3 receptor [2]): 25 nM

Compound: CC(=O)c1cccc(SCCc2c[nH]cn2)c1.O=C(O)C(=O)O [Example 157, 4-[2-(3-Ethanoylphenylthio)ethyl]-1H-imidazole oxalate]
Change in the level of cerebral tele-methylhistamine (relative to controls) [3]: -38%

Emax (histamine H3 receptor [4]; in vitro): 40% | EC50 (histamine H3 receptor [4]): 100 nM
Compound: FC(F)(F)c1cccc(OCCCc2c[nH]cn2)c1 [Example 8, 4-[3-(3-Trifluoramethylphenoxy)propyl]-1H-imidazole]
Change in the level of cerebral tele-methylhistamine (relative to controls) [3]: -41%

Ki (histamine H3 receptor [2]): 22 nM
Compound: c1ccc2cc(COCCCc3c[nH]cn3)ccc2c1 [Example 56, 3-(1H-Imidazol-4-yl)propyl 2-naphthylmethyl ether]

Compound: C=CCNC(=O)OCCCc1c[nH]cn1 [Example 112, 3-(1H-Imidazol-4-yl)propyl-N-(2-propenyl) carbamate]
change in vivo at 10 mg/kg [1, 5]: 98%

Compound: CC(=O)c1ccc(OCCCc2c[nH]cn2)cc1 [Example 78, (4-(3-(1H-Imidazol-4-yl)propyloxy)phenyl)ethanone]
change in vivo at 10 mg/kg [1, 5]: 68%

Compound: CCCC(=NO)c1ccc(OCCCc2c[nH]cn2)cc1 [Example 140, (4-(3-(1H-Imidazol-4-yl)propyloxy)phenyl)butanone oxime]
change in vivo at 10 mg/kg [1, 5]: 84%

Compound: O=C(c1ccc(OCCCc2c[nH]cn2)cc1)C1CC1 [Example 81, Cyclopropyl 4-(3-(1H-imidazol-4-yl)propyloxy)phenyl ketone]
change in vivo at 10 mg/kg [1]: 72%

Ki (histamine H3 receptor [2]): 16 nM
Compound: CCCCCCCOCCCc1c[nH]cn1 [Example 64, 3-(1H-Imidazol-4-yl)propyl heptyl ether]

functional class at the histamine H3 receptors (agonists) (histamine H3 receptor [4]; in words): agonists or partial agonists
Compound: CC(C)(C)CNC(=O)OCCCc1c[nH]cn1 [Example 111, N-(2,2-Dimethylpropyl)-3-(1H-imidazol-4-yl)propyl carbamate]
Change in the level of cerebral tele-methylhistamine (relative to controls) [3]: -34%

Ki (histamine H3 receptor [2]): 3 nM
Compound: CSc1ccc(OCCCc2c[nH]cn2)cc1 [Example 166, 4-[3-(4-Thiomethylphenoxy)propyl]-1H-imidazole oxalate]

Emax (histamine H3 receptor [4]; in vitro): 20% | EC50 (histamine H3 receptor [4]): 130 nM
Compound: CC(C)CCOCCCc1c[nH]cn1 [Example 5, 3-(1H-Imidazol-4-yl)propyl 3-methylbutyl ether]
Change in the level of cerebral tele-methylhistamine (relative to controls) [3]: -52%

Ki (histamine H3 receptor [2]): 45 nM
Compound: c1nc(CCCOc2ccc3c(c2)CCCC3)c[nH]1 [Example 21, 4-[3-(1,2,3,4-Tetrahydro-6-naphthyloxy)propyl]-1H-imidazole]
change in vivo at 10 mg/kg [1, 5]: 79%

functional class at the histamine H3 receptors (agonists) (histamine H3 receptor [4]; in words): agonists or partial agonists
Compound: CCC(C)(C)NC(=O)OCCCc1c[nH]cn1 [Example 110, 3-(1H-Imidazol-4-yl)propyl N-(2-methyl-2-butyl)carbamate]

behaviour in vitro at the H3 receptor (histamine H3 receptor [4]; in vitro, in words): behaves essentially as an antagonist | Emax (histamine H3 receptor [4]; in vitro): ~20% | EC50 (histamine H3 receptor [4]): 100 nM
Compound: O=C(NC(c1ccccc1)c1ccccc1)OCCCc1c[nH]cn1 [Example 2, 3-(1H-Imidazol-4-yl)propyl-N-(diphenylmethyl) carbamate]
Change in the level of cerebral tele-methylhistamine (relative to controls) [3]: -30% | response in the tele-methylhistamine test compared with (R)-α-methylhistamine ([3]; in vivo, in words): a response akin to that of (R)-α-methylhistamine | response in the capsaicin-induced plasma extravasation test compared with (R)-α-methylhistamine (plasma extravasation): a response akin to that of (R)-α-methylhistamine

Compound: Cc1nc(-c2ccc(OCCCc3c[nH]cn3)cc2)no1 [Example 149, 3-(1H-Imidazol-4-yl)propyl 4-(5-methyl-1,2,4-oxadiazol-3-yl)phenyl ether]
Ki (histamine H3 receptor [2]): 44 nM
